Reference: US7045532B2 (Millennium Pharmaceuticals, Inc., priority 1999, dated 2006)
Where two headings read alike, the source gives them in different places.

Legend:
ACE-2 [1] = target: T1, ACE-2 (Homo sapiens, UniProt Q9BYF1); test: ACE-2 Competitive Substrate Assay (ACS Assay); format: biochemical
T1 construct: a stop codon inserted after the serine immediately preceding the transmembrane domain; made in house; host or cells: CHO K1 cells (transient transfection, purified from conditioned medium)
T1 sequence (Q9BYF1 18-740 limits assumed): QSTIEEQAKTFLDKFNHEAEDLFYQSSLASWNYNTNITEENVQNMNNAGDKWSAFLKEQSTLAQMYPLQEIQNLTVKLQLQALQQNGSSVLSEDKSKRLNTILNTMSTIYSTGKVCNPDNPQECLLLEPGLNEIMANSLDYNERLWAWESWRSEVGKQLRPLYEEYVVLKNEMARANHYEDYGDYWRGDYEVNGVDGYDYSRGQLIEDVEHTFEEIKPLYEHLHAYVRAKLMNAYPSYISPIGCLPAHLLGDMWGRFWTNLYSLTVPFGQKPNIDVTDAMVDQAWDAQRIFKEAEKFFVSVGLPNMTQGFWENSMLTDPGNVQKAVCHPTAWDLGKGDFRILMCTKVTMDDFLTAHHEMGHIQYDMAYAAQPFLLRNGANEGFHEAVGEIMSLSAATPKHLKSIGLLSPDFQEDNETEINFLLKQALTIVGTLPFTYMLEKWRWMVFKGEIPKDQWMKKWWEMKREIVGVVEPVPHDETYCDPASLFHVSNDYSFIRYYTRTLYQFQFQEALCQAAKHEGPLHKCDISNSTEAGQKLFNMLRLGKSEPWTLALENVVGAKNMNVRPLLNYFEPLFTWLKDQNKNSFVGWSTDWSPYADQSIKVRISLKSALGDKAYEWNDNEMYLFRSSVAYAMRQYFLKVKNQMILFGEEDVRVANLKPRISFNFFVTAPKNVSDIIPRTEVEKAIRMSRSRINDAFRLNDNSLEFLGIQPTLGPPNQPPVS

ACE-2 [2] = target: ACE-2 (Rattus norvegicus, UniProt Q5EGZ1); test: ACE-2 Competitive Substrate Assay, rat ACE-2; format: biochemical; conditions: Ki class, compounds tested in 5% DMSO
Sequence of ACE-2 (Rattus norvegicus, UniProt Q5EGZ1) (Q5EGZ1 18-805): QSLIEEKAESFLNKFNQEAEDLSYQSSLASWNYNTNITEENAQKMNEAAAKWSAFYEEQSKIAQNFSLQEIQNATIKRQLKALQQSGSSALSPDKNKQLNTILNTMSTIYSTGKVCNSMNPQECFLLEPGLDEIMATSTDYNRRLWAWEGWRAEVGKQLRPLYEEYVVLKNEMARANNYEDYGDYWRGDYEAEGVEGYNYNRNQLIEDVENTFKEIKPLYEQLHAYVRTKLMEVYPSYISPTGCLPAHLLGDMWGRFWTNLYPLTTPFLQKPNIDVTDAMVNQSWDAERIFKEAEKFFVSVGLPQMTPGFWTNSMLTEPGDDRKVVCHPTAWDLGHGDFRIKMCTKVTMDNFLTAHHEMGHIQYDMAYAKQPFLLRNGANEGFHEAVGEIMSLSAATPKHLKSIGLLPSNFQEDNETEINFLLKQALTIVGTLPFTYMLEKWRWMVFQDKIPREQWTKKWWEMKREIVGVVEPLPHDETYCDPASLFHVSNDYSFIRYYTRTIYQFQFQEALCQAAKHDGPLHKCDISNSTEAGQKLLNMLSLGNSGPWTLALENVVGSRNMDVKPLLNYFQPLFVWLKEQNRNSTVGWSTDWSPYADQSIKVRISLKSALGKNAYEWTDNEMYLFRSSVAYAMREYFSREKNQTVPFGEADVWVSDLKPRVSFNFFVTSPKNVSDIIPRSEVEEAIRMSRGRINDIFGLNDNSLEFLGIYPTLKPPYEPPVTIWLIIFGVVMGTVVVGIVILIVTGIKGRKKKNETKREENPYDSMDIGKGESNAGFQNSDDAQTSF

ACE (Sigma, A2580) = target: T2, ACE (Sigma, A2580) (Sus scrofa, UniProt F1RRW5); test: ACE enzymatic activity assay; format: biochemical, porcine; conditions: Ki class, compounds tested in 5% DMSO
T2 construct: ACE from porcine kidney; purchased Sigma A2580; host or cells: porcine kidney
T2 sequence (F1RRW5 34-1309): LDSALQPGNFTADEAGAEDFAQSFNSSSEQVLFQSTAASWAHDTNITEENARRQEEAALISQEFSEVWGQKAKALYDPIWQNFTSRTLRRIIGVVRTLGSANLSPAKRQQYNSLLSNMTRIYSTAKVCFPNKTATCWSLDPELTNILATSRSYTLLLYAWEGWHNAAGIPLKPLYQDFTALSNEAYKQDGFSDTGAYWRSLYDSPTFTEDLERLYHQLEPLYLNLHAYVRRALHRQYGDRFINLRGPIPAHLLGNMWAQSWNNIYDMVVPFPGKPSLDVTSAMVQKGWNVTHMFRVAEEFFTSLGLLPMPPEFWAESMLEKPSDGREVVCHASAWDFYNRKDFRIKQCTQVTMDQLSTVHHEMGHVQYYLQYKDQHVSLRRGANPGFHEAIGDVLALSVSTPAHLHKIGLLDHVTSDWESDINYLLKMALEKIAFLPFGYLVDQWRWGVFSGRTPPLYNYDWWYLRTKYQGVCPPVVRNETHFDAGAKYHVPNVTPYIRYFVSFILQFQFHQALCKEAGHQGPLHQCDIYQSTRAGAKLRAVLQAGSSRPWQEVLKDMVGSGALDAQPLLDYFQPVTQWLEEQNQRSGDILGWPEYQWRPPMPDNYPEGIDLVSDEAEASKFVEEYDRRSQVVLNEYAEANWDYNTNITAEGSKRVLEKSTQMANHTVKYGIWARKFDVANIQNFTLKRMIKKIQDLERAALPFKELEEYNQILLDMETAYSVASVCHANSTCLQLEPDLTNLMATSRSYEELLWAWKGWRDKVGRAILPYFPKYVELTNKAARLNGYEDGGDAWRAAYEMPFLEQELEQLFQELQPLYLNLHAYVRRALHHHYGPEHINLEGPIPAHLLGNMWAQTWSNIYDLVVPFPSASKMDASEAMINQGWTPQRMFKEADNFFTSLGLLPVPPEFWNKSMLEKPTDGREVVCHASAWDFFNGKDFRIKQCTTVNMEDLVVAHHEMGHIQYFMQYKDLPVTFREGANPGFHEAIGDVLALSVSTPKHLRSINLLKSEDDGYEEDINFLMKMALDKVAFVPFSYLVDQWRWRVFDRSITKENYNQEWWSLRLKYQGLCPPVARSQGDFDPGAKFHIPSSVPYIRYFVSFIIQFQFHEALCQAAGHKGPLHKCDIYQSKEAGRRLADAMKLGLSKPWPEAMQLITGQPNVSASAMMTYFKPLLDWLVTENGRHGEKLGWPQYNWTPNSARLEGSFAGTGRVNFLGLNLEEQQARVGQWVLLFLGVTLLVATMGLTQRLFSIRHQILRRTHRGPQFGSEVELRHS
How it was run: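 ACE (1 nM final) in 50 mM HEPES, 300 mM NaCl, 0.01% Brij-35, pH 7.5, with compound in 5% DMSO at 12 concentrations, 25 °C. Substrate cleavage run ~30 min, stopped with EDTA; fluorescence read at excitation 320 nm, emission 405 nm.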

Carboxypeptidase A = target: T3, Carboxypeptidase A (Bos taurus, UniProt P00730); test: Carboxypeptidase A activity assay; format: biochemical; conditions: Ki class, compounds tested in 5% DMSO
T3 sequence (P00730 111-419): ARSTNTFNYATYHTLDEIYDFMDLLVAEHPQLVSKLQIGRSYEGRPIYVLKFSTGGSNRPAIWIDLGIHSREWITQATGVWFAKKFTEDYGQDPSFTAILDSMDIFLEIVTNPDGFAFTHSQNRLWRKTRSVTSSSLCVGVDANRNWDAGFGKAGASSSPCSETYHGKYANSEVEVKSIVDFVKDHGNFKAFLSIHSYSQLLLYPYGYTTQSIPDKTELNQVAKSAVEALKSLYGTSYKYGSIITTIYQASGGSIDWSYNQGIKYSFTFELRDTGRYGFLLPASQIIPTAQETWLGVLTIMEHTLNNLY
How it was run: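 Bovine carboxypeptidase A activity followed at 328 nm in 5% DMSO, reaction stopped with EDTA. Activity measured at 12 compound concentrations. Ki derived from apparent Ki as Ki=Kiapp/(1+[S]/Km).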

[3] = Ki class, compounds tested in 5% DMSO, 12 concentrations, read-out: Human ACE-2 Activity
[4] = Ki class, compounds tested in 5% DMSO, 12 compound concentrations, Ki=Kiapp/(1+[S]/Km), read-out: Human ACE-2 Activity
[5] = Table 3, very good ACE-2 inhibiting compounds, species not given, read-out: ACE-2 Activity, Ki

Row | Ki (ACE-2 [1]; [3]) [µM] | relative activity of the diastereomers EZ and FA (ACE-2 [1]; assay not given) | Ki (ACE-2 [2]; 12 concentrations) [µM] | Ki (ACE (Sigma, A2580); 12 concentrations) [µM] | Ki (Carboxypeptidase A; 12 concentrations) [µM] | Ki (ACE-2 [1]; [4]) [µM] | Ki (ACE-2 [1]; [5]) [µM] | Ki (ACE-2 [2]; 12 compound concentrations) [µM] | Ki (ACE (Sigma, A2580); 12 compound concentrations) [µM] | Ki (Carboxypeptidase A; 12 compound concentrations) [µM] | Structure (SMILES)
1 | > 0.5 | more active diastereomer | < 0.1 | > 50 | > 50 |  |  |  |  |  | CC(C)CC(N[C@@H](Cc1cncn1Cc1ccccc1)C(=O)O)C(=O)O (single isomer, unassigned) [EZ, 2-[2-(3-Benzyl-3H-imidazol-4-yl)-1-carboxy-ethylamino]-4-methyl-pentanoic acid]
2 |  |  |  |  |  | < 0.1 | 0.05 to 0.1 | 0.1 to 0.5 | < 10 | < 10 | CC(C)CC(N[C@@H](Cc1cncn1Cc1ccc(C(C)C)cc1)C(=O)O)C(=O)O (single isomer, unassigned) [HU, 2-[1-Carboxy-2-[3-(4-isopropyl-benzyl)-3H-imidazol-4-yl]-ethylamino)4-methyl-pentanoic acid]
3 | > 0.5 |  | < 0.1 | > 50 | 10 to 50 |  |  |  |  |  | CC(C)CC(N[C@@H](CN(C)c1ccccc1)C(=O)O)C(=O)O (stereo partly drawn) [FS, 2-[1-Carboxy-2-(methyl-phenyl-amino)-ethylamino]-4-methyl-pentanoic acid]
4 | > 0.5 |  | > 0.5 | > 50 | > 50 |  |  |  |  |  | COC(=O)[C@H](CC(C)C)NCC(=O)c1ccc(-c2ccccc2)cc1 [DH, 2-(2-Biphenyl-4-yl-2-oxo-ethylamino)-4-methyl-pentanoic acid methylester]
5 | > 0.5 |  | > 0.5 | 10 to 50 | < 10 |  |  |  |  |  | CC(C)CC(N[C@@H](Cc1cn(Cc2ccc(Cl)cc2)cn1)C(=O)O)C(=O)O (stereo partly drawn) [EC, 2-{1-Carboxy-2-[1-(4-chloro-benzyl}-1H-imidazol-4-yl]-ethylamino)4-methyl-pentanoic acid]
6 | > 0.5 |  | < 0.1 | > 50 | > 50 |  |  |  |  |  | CCCCC(N[C@@H](Cc1cncn1Cc1ccccc1)C(=O)O)C(=O)O (single isomer, unassigned) [FY, 2-[2-(3H-Benzyl-3-imidazol-4-yl)-1-carboxy-ethylamino]-hexanoicacid]
7 | > 0.5 |  | > 0.5 | > 50 | > 50 |  |  |  |  |  | CC(C)C[C@H](N[C@H](CCc1ccccc1)C(=O)O)C(=O)O [E, 2-(1-Carboxy-3-phenyl-propylamino)-4-methyl-pentanoic acid]
8 | > 0.5 |  | > 0.5 | > 50 | 10 to 50 |  |  |  |  |  | CC(C)CC(N[C@H](Cc1cccs1)C(=O)O)C(=O)O (stereo in doubt) [CP, 2-(1-Carboxy-2-thiophen-2-yl-ethylamino)-4-methyl-pentanoic acid]
9 | > 0.5 |  | > 0.5 | > 50 | > 50 |  |  |  |  |  | CC(C)CC(N[C@@H](Cc1cncn1COCc1ccccc1)C(=O)O)C(=O)O (single isomer, unassigned) [FG, 2-[2-(3-Benzyloxymethyl-3H-imidazol-4-yl)-1-carboxy-ethylamino]-4-methyl-pentanoic acid]
10 |  |  |  |  |  | < 0.1 | < 0.05 | < 0.1 | 10 to 50 | 10 to 50 | CC(C)CC(N[C@@H](Cc1cncn1Cc1cccc(Cl)c1)C(=O)O)C(=O)O (single isomer, unassigned) [HC, 2-[1-Carboxy-2-[3-(3-chloro-benzyl)-3H-imidazol-4-yl]-ethylamino)4-methyl-pentanoic acid]
11 | > 0.5 |  | > 0.5 | > 50 | > 50 |  |  |  |  |  | CC(C)CC(N[C@H](Cc1c[nH]cn1)C(=O)O)C(=O)O (single isomer, unassigned) [BI, 2-[1-Carboxy-2-(1H-imidazol-4-yl)-ethylamino]4-methyl-pentanoic acid]
12 | > 0.5 |  | > 0.5 | > 50 | > 50 |  |  |  |  |  | O=C(O)C(Cc1ccc(O)cc1)N[C@@H](Cc1c[nH]cn1)C(=O)O (single isomer, unassigned) [DN, 2-[1-Carboxy-2-(4-hydroxy-phenyl)-ethylamino]-3-(1H-imidazol-4-yl)-propionic acid]
13 | > 0.5 |  | 0.1 to 0.5 | > 50 | 10 to 50 |  |  |  |  |  | O=C(O)[C@H](CC#Cc1ccccc1)N[C@@H](CCc1ccccc1)C(=O)O [DS, 2-(1-Carboxy-3-phenyl-propylamino)-5-phenyl-pent-4-ynoic acid]
14 | > 0.5 |  | > 0.5 | 10 to 50 | > 50 |  |  |  |  |  | CC(C)CC(N[C@@H](Cc1cn(-c2ccc([N+](=O)[O-])cc2[N+](=O)[O-])cn1)C(=O)O)C(=O)O (stereo in doubt) [EG, 2-[1-Carboxy-2-[1-(2,4-dinitro-phenyl)-1H-imidazol-4-yl]-ethylamino)4-methyl-pentanoic acid]
15 | > 0.5 |  | > 0.5 | > 50 | > 50 |  |  |  |  |  | COc1ccc(CCNC(=O)[C@H](Cc2cnc[nH]2)NC(CC(C)C)C(=O)O)cc1 (single isomer, unassigned) [FK, 2-{2-(3H-Imidazol-4-yl)-1-[2-(4-methoxy-phenyl)-ethylcarbamoyl]-ethylamino}-4-methyl-pentanoic acid]
16 | > 0.5 |  | > 0.5 | > 50 | > 50 |  |  |  |  |  | NCCCC[C@H](NC(CCc1ccccc1)C(=O)O)C(=O)O (stereo partly drawn) [BU, 6-Amino-2-(1-carboxy-3-phenyl-propylamino)-hexanoic acid]
17 | > 0.5 |  | > 0.5 | > 50 | > 50 |  |  |  |  |  | O=C(O)[C@H](CC1CC1)N[C@H](CCc1ccccc1)C(=O)O [DE, 2-(1-Carboxy-2-cyclopropyl-ethylamino)-4-phenyl-butync acid]
18 | > 0.5 |  | > 0.5 | > 50 | > 50 |  |  |  |  |  | CC(C)CC(N[C@H](CC(=O)O)Cc1ccco1)C(=O)O (stereo partly drawn) [EH, 2-(1-Carboxymethyl-2-furan-2-yl-ethylamino)-4-methyl-pentanoic acid]
19 | > 0.5 |  | > 0.5 | > 50 | > 50 |  |  |  |  |  | O=C(O)C[C@H](NC(CCc1ccccc1)C(=O)O)C(=O)O (stereo partly drawn) [AZ, 2-(1-Carboxy-3-phenyl-propylamino)-succinicacid]
20 | < 0.1 |  | < 0.1 | > 50 | 10 to 50 |  |  |  |  |  | CC(C)CC(N[C@@H](Cc1cncn1Cc1ccc(Cl)cc1)C(=O)O)C(=O)O (single isomer, unassigned) [GM, 2-[1-Carboxy-2-[3-(4-chloro-benzyl)-3H-imidazol-4-yl]-ethylamino]4-methyl-pentanoic acid]
21 | > 0.5 |  | > 0.5 | > 50 | > 50 |  |  |  |  |  | CC(C)C[C@H](N[C@@H](C(=O)O)c1ccccc1)C(=O)O [R, 2-[(Carboxy-phenyl-methyl)-amino]-4-methyl-pentanoic acid]
